One experiment addresses T1, SMBS on rat lung membranes (Rattus norvegicus, UniProt A0A8I6A822).
T1 construct: from tissue; host or cells: rat lung membranes (SD male rats)
The experiment in a line: Receptor binding of the compound in rat lung membranes ([125I]-iodo-cyanopindolol ligand binding assay; Experiments 1 and 4). The settings on record: Table 37; compound concentration 30 μM; [125I]-iodo-cyanopindolol, rat lung membranes; Experiment 1; read-out: Binding Activity (30 μM). The protocol:
Evaluation Test on Receptor Binding of the Compound in Rat Lung Membranes:
This experiment was carried out according to the method disclosed in Sugasawa et al., (Sugasawa, T. et al., J. Biol. Chem., 272, 21244-21252(1997)).
Preparation of Rat Lung Membranes
The air tube and blood vessels were removed from the lung excised from SD male rats (7-weeks old when used, purchased from Charles River Japan, Inc.), and the lung was chopped, and washed with ice-cold tris-saline buffer (10 mM Tris-HCl, 154 mM sodium chloride, pH 7.4). The lung was homogenized by PHYSCOTRON (maximum speed: 1 minute) in a buffer for homogenization (tris-saline buffer containing 1 mM ethylenediaminetetraacetate (EDTA), 1 mM 4-(2-aminoethyl)-benzenesulfonyl fluoride (AEBSF), 5 μg/ml aprotinin, 5 μg/ml leupeptin) under ice-cooling. The mixture was centrifuged at a low speed (1500×g, 20 minutes, 4° C.), and the supernatant was super-centrifuged (100000×g, 20 minutes, 4° C.). The pellets thus obtained were suspended in tris-saline buffer, and kept at −80° C. The concentration of protein was measured by a Protein Assay Kit manufactured by Bio-Rad using bovine serum albumin (BSA) as standard.
To each well of a protein-non-adsorbent round-bottom 96-well assay plate (purchased from IWAKI GLASS CO., LTD.) was added tris-saline buffer (200 μl) containing 1 nM [^125I]-iodo-cyanopindolol (purchased from Amarsham), 10 μM serotonin, 20 μM dl-propranol, 10 μM phentoramine, 1.1 mM ascorbic acid and 100 μg lung membranes, and the mixture was mixed well by pipetting, and the plate was incubated at 37° C. for 30 minutes. Test compounds were dissolved in 100% dimethylsulfoxide, and added to the plate in an amount of 2 μl (final concentration of DMSO: 1%). In order to obtain non-specific binding, L-threo-3-(3,4-dihydroxyphenyl)-N-[3-(4-fluorophenyl)propyl]-serinepyrrolidinamide was added at a final concentration of 100 μM instead of test compound. During this period, 0.3% polyethyleneimine (PEI)/tris-saline buffer (100 μl) was added to a multiscreen plate (96-well B-glassfiber, milipore Cat. No. MAFB NOB10) and the plate was incubated for more than 30 minutes. The plate was washed by vacuum filtration (by adding ice-cold tris-saline buffer (200 μl) and then vacuum filtration), and the reaction solution on the 96-well assay plate was washed by vacuum filtration onto the multiscreen plate for four times. The B-glassfiber paper filter at the bottom of the multiscreen plate was punched out, and the γ-ray amount of [^125I]-iodo-cyanopindolol being trapped onto the paper filter was measured as binding amount. The binding amount in the presence of DMSO (final concentration: 1%) was regarded as total binding, and the binding in the presence of L-threo-3-(3,4-dihydroxyphenyl) -N-[3-(4-fluorophenyl)-propyl]serinepyrrolidinamide was regarded as non-specific binding. The value which is calculated by subtracting non-specific binding from total binding is specific binding. The binding activity of the compound can be calculated by the following equation, and expressed in a ratio of inhibiting the specific binding of [^125I]-iodo-cyanopindorol to SMBS on rat lung membranes.
In the same manner to in Experiment 1, the receptor binding assay was carried out on the present compounds by using the rat lung membranes.
T1 sequence (A0A8I6A822 27-587): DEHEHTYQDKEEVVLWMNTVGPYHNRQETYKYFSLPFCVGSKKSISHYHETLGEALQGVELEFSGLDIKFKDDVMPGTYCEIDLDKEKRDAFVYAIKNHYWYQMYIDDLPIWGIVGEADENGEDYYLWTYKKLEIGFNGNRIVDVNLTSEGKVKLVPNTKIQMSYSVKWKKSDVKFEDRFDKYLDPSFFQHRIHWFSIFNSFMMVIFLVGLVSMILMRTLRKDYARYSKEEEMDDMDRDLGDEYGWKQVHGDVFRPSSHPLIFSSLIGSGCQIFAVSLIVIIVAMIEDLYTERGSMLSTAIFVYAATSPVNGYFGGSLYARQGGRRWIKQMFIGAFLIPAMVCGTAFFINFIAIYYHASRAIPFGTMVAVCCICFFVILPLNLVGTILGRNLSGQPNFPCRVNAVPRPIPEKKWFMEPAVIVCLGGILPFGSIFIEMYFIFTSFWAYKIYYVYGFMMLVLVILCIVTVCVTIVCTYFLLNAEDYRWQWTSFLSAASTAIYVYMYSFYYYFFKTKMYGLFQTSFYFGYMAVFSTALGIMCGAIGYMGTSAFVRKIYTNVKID
Regarding `COc1ccc(-c2csc(=Nc3ccccc3)n2CCCN)cc1` [Example 9, N-[3-(3-Aminopropyl)-4-(4-methoxyphenyl)-thiazol-2(3H) -ylidene]aniline], the inhibition at 30 µM came to 79%.

For the compound `NCCCn1c(-c2ccc(-c3ccccc3)cc2)csc1=Nc1ccccc1` [Example 11, N-[3-(3-Aminopropyl)-4-(1,1′-biphenyl-4-yl)thiazol-2(3H)-ylidene]aniline], the inhibition at 30 µM was 98.1%.

Still in this experiment, the particulars now being: Table 39; compound concentration 30 μM; [125I]-iodo-cyanopindolol, rat lung membranes; Experiment 1; read-out: Binding Activity (30 μM).
Turning to `CNCCCn1c(-c2ccc(OC)cc2)csc1=Nc1ccccc1` [Example 152, N-{4-(4-Methoxyphenyl)-3-[3-(methylamino)propyl]thiazol-2(3H)-ylidene}aniline], the inhibition at 30 µM came to 76.5%.

For `CC(=O)NCCCn1c(-c2ccc(Br)cc2)csc1=Nc1ccccc1` [Example 153, N-{3-[4-(4-Bromophenyl)-2-phenyliminothiazol-3(2H)-yl]propyl}-acetamide], the inhibition at 30 µM is 89.7%.

For `O=C(CO)NCCCn1c(-c2ccc(Br)cc2)csc1=Nc1ccccc1` [Example 169, N-{3-[4-(4-Bromophenyl)-2-(phenylimino)-thiazol-3(2H)-yl]propyl}-2-hydroxyacetamide], the inhibition at 30 µM amounted to 58.6%.

`COC(=O)NCCCn1c(-c2ccc(OC)cc2)csc1=Nc1ccccc1` [Example 176, Methyl 3-[4-(4-methoxyphenyl)-2-(phenylimino)thiazol-3(2H)-yl]propyl-carbamate]: the inhibition at 30 µM worked out at 75.2%.

As for `NCCCn1c(-c2ccc(C(=O)O)cc2)csc1=Nc1ccccc1` [Example 185, 4-[3-(3-Aminopropyl)-2-(phenylimino)-2,3-dihydrothiazol-4-yl]-benzoic acid], the inhibition at 30 µM amounted to 13.9%.

The same experiment, now with this note: Table 42; concentration tested 30 μM; rat lung membranes; Experiment 4; read-out: Binding Activity (30 μM).
As for `CNC(=O)NCCn1c(-c2ccc(N3CCOCC3)cc2)csc1=Nc1ccc(F)cc1` [Example 214, N-Methyl-N′-{2-[2-[(4-fluorophenyl)imino]-4-[4-(morpholino)phenyl]-thiazol-3(2H)-yl]ethyl}urea], the inhibition at 30 µM is 99%.

Take `CCOC(=O)CNCCCn1c(-c2ccc(F)cc2)csc1=Nc1ccc(Cl)cc1OC` [Example 215, Ethyl N-{3-[2-[(4-chloro-2-methoxyphenyl)imino]-4-(4-fluorophenyl)-thiazol-3(2H)-yl]propyl}glycinate]: the inhibition at 30 µM stood at 109%.

On to `CCOC(=O)CCNCCCn1c(-c2ccc(F)cc2)csc1=Nc1ccc(Cl)cc1OC` [Example 216, Ethyl N-{3-[2-[(4-chloro-2-methoxyphenylimino)]-4-(4-fluoro-phenyl)-thiazol-3 (2H)-yl]propyl}-β-alaninate], for which the inhibition at 30 µM stood at 112%.

Turning to `CN(C)C(=O)NCCCn1c(-c2ccc(N3CCOCC3)cc2)csc1=Nc1ccc(F)cc1` [Example 220, N′-{3-[2-[(4-Fluorophenyl)imino]-4-[4-(morpholino)phenyl]thiazol-3(2H)-yl]propyl}-N,N-dimethylurea], the inhibition at 30 µM was found to be 101%.

On to `CCCCNC(=O)NCCCn1c(-c2ccc(N3CCOCC3)cc2)csc1=Nc1ccc(F)cc1` [Example 221, N-butyl-N′-{3-[2-[(4-fluorophenyl)imino]-4-[4-(morpholino)phenyl]-thiazol-3(2H)-yl]propyl}urea], for which the inhibition at 30 µM turned out to be 79%.

`O=C(NCCCn1c(-c2ccc(N3CCOCC3)cc2)csc1=Nc1ccc(F)cc1)c1ccccc1` [Example 222, N-{3-[2-[(4-Fluorophenyl)imino]-4-[4-(morpholino)phenyl]thiazol-3(2H)-yl]propyl}benzamide]: the inhibition at 30 µM came out at 86%.

Take `CCOC(=O)CC(=O)NCCCn1c(-c2ccc(N3CCOCC3)cc2)cs/c1=N\c1ccc(F)cc1` [Example 239]: the inhibition at 30 µM is 50%.

For `CN(C)CC(=O)NCCCn1c(-c2ccc(N3CCOCC3)cc2)cs/c1=N\c1ccc(F)cc1` [Example 245], the inhibition at 30 µM is 96%.

For the compound `O=C(COc1ccccc1)NCCCn1c(-c2ccc(N3CCOCC3)cc2)cs/c1=N\c1ccc(F)cc1` [Example 246], the inhibition at 30 µM was determined as 80%.

Turning to `CCOC(=O)NCCCn1c(-c2ccc(N3CCOCC3)cc2)cs/c1=N\c1ccc(F)cc1` [Example 250], the inhibition at 30 µM was found to be 98%.

In the case of `CCS(=O)(=O)NCCCn1c(-c2ccc(N3CCOCC3)cc2)cs/c1=N\c1ccc(F)cc1` [Example 251], the inhibition at 30 µM stood at 61%.

For the compound `N=C(NCCCn1c(-c2ccc(N3CCOCC3)cc2)cs/c1=N\c1ccc(F)cc1)N1CCCCC1` [Example 257], the inhibition at 30 µM was 110%.

In the case of `CCNC(=O)NCCn1c(-c2ccc(N3CCOCC3)cc2)cs/c1=N\c1ccc(F)cc1` [Example 280], the inhibition at 30 µM stood at 99%.

For the compound `CCCCCCNC(=O)NCCCn1c(-c2ccc(N3CCOCC3)cc2)cs/c1=N\c1ccc(F)cc1` [Example 284], the inhibition at 30 µM was found to be 77%.

`O=C(NCCCn1c(-c2ccc(N3CCOCC3)cc2)cs/c1=N\c1ccc(F)cc1)NC1CCCCC1` [Example 285]: the inhibition at 30 µM stood at 35%.

In the case of `O=C(NCCCn1c(-c2ccc(N3CCOCC3)cc2)cs/c1=N\c1ccc(F)cc1)Nc1ccc(F)cc1` [Example 288], the inhibition at 30 µM was determined as 34%.

`O=C(NCCCn1c(-c2ccc(N3CCOCC3)cc2)cs/c1=N\c1ccc(F)cc1)NCc1ccccc1` [Example 290]: the inhibition at 30 µM was found to be 98%.

As for `COc1ccc(NC(=O)NCCCn2c(-c3ccc(N4CCOCC4)cc3)cs/c2=N\c2ccc(F)cc2)cc1` [Example 291], the inhibition at 30 µM was determined as 68%.

On to `CCNC(=O)NCCCCCn1c(-c2ccc(N3CCOCC3)cc2)cs/c1=N\c1ccc(F)cc1` [Example 295], for which the inhibition at 30 µM came to 18%.

Turning to `CCNC(=O)NCCCn1c(-c2ccc(N3CCOCC3)cc2)cs/c1=N\c1ncccn1` [Example 297], the inhibition at 30 µM came to 75%.

Turning to `CCNC(=O)NCCCn1c(-c2ccc(N3CCOCC3)cc2)cs/c1=N\c1ccc(OC)cn1` [Example 298], the inhibition at 30 µM stood at 101%.

The same experiment, now with this note: Table 43; concentration tested 30 μM; rat lung membranes; Experiment 4; read-out: Binding Activity (30 μM).
With `CCNC(=O)NCCCn1c(-c2ccc(N3CCOCC3)cc2)cs/c1=N\c1nccs1` [Example 299], the inhibition at 30 µM was found to be 93%.

In the case of `CCNC(=O)NCCCn1c(CN(C)Cc2ccc(Cl)cc2)cs/c1=N\c1ccc(OC(F)(F)F)cc1` [Example 303], the inhibition at 30 µM is 23%.

Regarding `CCNC(=O)NCCCn1c(COCc2ccccc2)cs/c1=N\c1ccc(OC(F)(F)F)cc1` [Example 305], the inhibition at 30 µM amounted to 13%.

`CCNC(=O)NCCCn1c(COCc2ccccc2)cs/c1=N\c1ccc(OC)cn1` [Example 307]: the inhibition at 30 µM stood at 48%.

Take `CN(C)C(=O)NCCCn1c(-c2ccc3c(c2)OCO3)cs/c1=N\c1ccc(OC(F)(F)F)cc1` [Example 309]: the inhibition at 30 µM worked out at 100%.

With `CCNC(=S)NCCCn1c(-c2ccc(N3CCOCC3)cc2)cs/c1=N\c1ccc(F)cc1` [Example 312], the inhibition at 30 µM was determined as 112%.

In the case of `COCCNCCCn1c(-c2ccc(F)cc2)cs/c1=N\c1ccc(Cl)cc1OC` [Example 315], the inhibition at 30 µM was 115%.

In the case of `COCCOCCNCCCn1c(-c2ccc(F)cc2)cs/c1=N\c1ccc(Cl)cc1OC` [Example 316], the inhibition at 30 µM stood at 102%.

As to `O=C(O)CNCCCn1c(-c2ccc(N3CCOCC3)cc2)csc1=Nc1ccc(F)cc1` [Example 329, N-{3-[2-[(4-Fluorophenyl)imino]-4-[4-(morpholino)phenyl]thiazol-3(2H)-yl]propyl}glycine], the inhibition at 30 µM is 76%.

In the case of `CCNC(=O)CNCCCn1c(-c2ccc(N3CCOCC3)cc2)csc1=Nc1ccc(F)cc1` [Example 335, N^1-ethyl-N^2-{3-[2-[(4-fluorophenyl)imino]-4-[4-(morpholino)phenyl]-thiazol-3(2H)-yl]propyl}glycinamide], the inhibition at 30 µM stood at 101%.

For `CN(C)C(=O)CNCCCn1c(-c2ccc(N3CCOCC3)cc2)cs/c1=N\c1ccc(F)cc1` [Example 342], the inhibition at 30 µM came out at 56%.

These data come from patent US7396842B2, “Five-membered cyclic compounds” (Dianippon Sumitomo Pharma Co., Ltd., priority 2002, dated 2008).
